Test results as given in patent US9590187B2, “Substituent-eliminable diketopyrrolopyrrole derivative, organic semiconductor material precursor solution, organic semiconductor material, and organic semiconductor material film” (RICOH COMPANY, LTD., priority 2013, dated 2017).

Legend:
[1] = Evaluation of solubility in organic solvents (saturated solution after reflux, cooling to room temperature, filtration, drying); type: physicochemical; conditions: reflux 10 minutes, cooled to room temperature, stand 16 hours, 0.2-μm PTFE filter
Description: Add each of the compounds obtained in the above Examples 1-6 to each of toluene, THF, and chloroform until it gets undissolved. Agitate each solution for 10 minutes under solvent reflux, then cool it to room temperature, further agitate it for 1 hour, and allow it to stand for 16 hours. Filter the supernatant liquid with a 0.2-μm PTFE filter to obtain a saturated solution. Dry the solution under reduced pressures to calculate solubility of each compound against each solvent. Evaluation criteria are as follows.
A: Solubility is 0.5% by weight or more.
B: Solubility is 0.05% by weight or more and less than 0.5% by weight.
C: Solubility is 0.005% by weight or more and less than 0.05% by weight.
D: Solubility is less than 0.005% by weight.

[2] = Thermogravimetric measurement of the elimination reaction (EXSTAR 6200, nitrogen atmosphere); type: physicochemical; conditions: observed within 190 to 210° C.
Description: Put the above-prepared substituent-eliminable derivative No. 6 (5 mg, […]) in an aluminum pan and heat it to 300° C. at a rate of 10° C./min with a thermal analysis instrument (EXSTAR 6200 from Seiko Instruments Inc.) under nitrogen atmosphere. Thus, a dark purple solid (3.8 mg) is obtained. m/z=704.1 (M+H).
Put the above-prepared substituent-eliminable derivative No. 9 (5 mg, […] in an aluminum pan and heat it to 250° C. at a rate of 20° C./min with a thermal analysis instrument (EXSTAR 6200 from Seiko Instruments Inc.) under nitrogen atmosphere. Thus, a dark purple solid (3.8 mg) is obtained. m/z=704.1 (M+H). The thermogravimetric measurement result is shown in FIG. 3.
Repeat the procedures in Example 4 except for replacing the substituent-eliminable derivative No. 6 with No. 16 (5 mg, 4.6 μmol). Thus, a dark purple specific compound (4.2 mg) is obtained. m/z=872.2 (M+H).

[3] = heated to 300° C. at 10° C./min

| Structure (SMILES) | Decrease in weight (thermogravimetric) ([2]; heated to 250° C. at 20° C./min) [%] | Decrease in weight (thermogravimetric) [2, 3] [%] | Solubility in THF [1] | Solubility in Chloroform [1] | Solubility in Toluene [1] |
| --- | --- | --- | --- | --- | --- |
| CCCCC(CC)CN1C(=O)C2=C(c3ccc(-c4cccc(O)c4)s3)N(CC(CC)CCCC)C(=O)C2=C1c1ccc(-c2cccc(O)c2)s1 (stereo not drawn) [Specific Compound No. 9] | – | – | D (Solubility is less than 0.005% by weight.) | D (Solubility is less than 0.005% by weight.) | D (Solubility is less than 0.005% by weight.) |
| CCCCC(CC)CN1C(=O)C2=C(c3ccc(-c4ccc(-c5cccc(O)c5)s4)s3)N(CC(CC)CCCC)C(=O)C2=C1c1ccc(-c2ccc(-c3cccc(O)c3)s2)s1 (stereo not drawn) [Specific Compound No. 16] | – | – | D (Solubility is less than 0.005% by weight.) | D (Solubility is less than 0.005% by weight.) | D (Solubility is less than 0.005% by weight.) |
| CCCCC(CC)CN1C(=O)C2=C(c3ccc(-c4ccc(O)cc4)s3)N(CC(CC)CCCC)C(=O)C2=C1c1ccc(-c2ccc(O)cc2)s1 (stereo not drawn) [Specific Compound No. 6] | – | – | D (Solubility is less than 0.005% by weight.) | D (Solubility is less than 0.005% by weight.) | D (Solubility is less than 0.005% by weight.) |
| CCCCC(CC)CN1C(=O)C2=C(c3ccc(-c4ccc(-c5cccc(OC(=O)OC(C)(C)C)c5)s4)s3)N(CC(CC)CCCC)C(=O)C2=C1c1ccc(-c2ccc(-c3cccc(OC(=O)OC(C)(C)C)c3)s2)s1 (stereo not drawn) [Substituent-eliminable Derivative No. 16] | – | 18.5 | A (Solubility is 0.5% by weight or more.) | A (Solubility is 0.5% by weight or more.) | A (Solubility is 0.5% by weight or more.) |

Further lines, with some results ahead:

| Decrease in weight (thermogravimetric) ([2]; heated to 250° C. at 20° C./min) [%] | Decrease in weight (thermogravimetric) [2, 3] [%] | Structure (SMILES) | Solubility in THF [1] | Solubility in Chloroform [1] | Solubility in Toluene [1] |
| --- | --- | --- | --- | --- | --- |
| 21.2 | – | CCCCC(CC)CN1C(=O)C2=C(c3ccc(-c4cccc(OC(=O)OC(C)(C)C)c4)s3)N(CC(CC)CCCC)C(=O)C2=C1c1ccc(-c2cccc(OC(=O)OC(C)(C)C)c2)s1 (stereo not drawn) [Substituent-eliminable Derivative No. 9] | A (Solubility is 0.5% by weight or more.) | A (Solubility is 0.5% by weight or more.) | A (Solubility is 0.5% by weight or more.) |
| – | 21.5 | CCCCC(CC)CN1C(=O)C2=C(c3ccc(-c4ccc(OC(=O)OC(C)(C)C)cc4)s3)N(CC(CC)CCCC)C(=O)C2=C1c1ccc(-c2ccc(OC(=O)OC(C)(C)C)cc2)s1 (stereo not drawn) [Substituent-eliminable Derivative No. 6] | A (Solubility is 0.5% by weight or more.) | A (Solubility is 0.5% by weight or more.) | B (Solubility is 0.05% by weight or more and less than 0.5% by weight.) |
